Earlier results as cited in patent US7947285B2, “Methods for preventing post endoscopic retrograde cholangiopancreatography pancreatitis” (priority 2003, dated 2011).

Experiments:
post-ERCP pancreatitis [1] = details: high-risk patients; two large controlled trials; cited from earlier work
post-ERCP pancreatitis [2] = details: prophylaxis; meta-analysis of 28 clinical trials; cited from earlier work
post-ERCP pancreatitis [3] = details: cited from earlier work
post-ERCP pancreatitis [4] = details: patients without pancreas divisum; retrospective review; cited from earlier work

Molecule | preventing post-ERCP pancreatitis (post-ERCP pancreatitis [1]) | reducing the frequency of post-ERCP pancreatitis (post-ERCP pancreatitis [2]) | effect on clinical course of post-ERCP pancreatitis (post-ERCP pancreatitis [3]; human, in vivo) | effect on hyperamylasemia (post-ERCP pancreatitis [3]; post-ERCP) | incidence of post-ERCP pancreatitis (post-ERCP pancreatitis [4])
CCOC(=O)c1ccc(OC(=O)CCCCCNC(=N)N)cc1 [gabexate] | ineffective | effective |  |  | 
C[C@@H](O)[C@@H]1NC(=O)[C@H](CCCCN)NC(=O)[C@@H](Cc2c[nH]c3ccccc23)NC(=O)[C@H](Cc2ccccc2)NC(=O)[C@@H](NC(=O)[C@H](N)Cc2ccccc2)CSSC[C@@H](C(=O)N[C@H](CO)[C@@H](C)O)NC1=O [octreotide] | ineffective |  | has not been show to alter the clinical course | reduces hyperamylasemia | 
secretin |  |  |  |  | might decrease the incidence
